Patent US20210267944A1 (BioXcel Therapeutics, Inc., priority 2018, published 2021)
Structures can show the parent of a compound that is named as a salt. Where two headings read alike, the source gives them in different places.

Conditions: opioid withdrawal patients
Excerpt: The participants were continuously monitored by the site personnel, including blood pressure and heart rate, from the start of the infusion through resolution of sedation and/or any adverse effects on blood pressure or heart rate. An electrocardiogram was obtained at screening, pre-infusion and upon resolution of sedation, a predetermined reduction in COWS or return to baseline.

## Cc1cccc([C@H](C)c2cnc[nH]2)c1C [dexmedetomidine hydrochloride]
Day-1, 00:00 Hr
  Diastolic blood pressure Max: 110 mm of Hg
  Diastolic blood pressure Mean ± SD: 83.81 ± 12.99 mm of Hg
  Diastolic blood pressure Median: 82 mm of Hg
  Diastolic blood pressure Min: 64 mm of Hg
  Heart rate Max: 106 beats/minutes
  Heart rate Mean ± SD: 69.9 ± 16.37 beats/minutes
  Heart rate Median: 66 beats/minutes
  Heart rate Min: 55 beats/minutes
Day-1, 00:15 Hr
  Diastolic blood pressure Max: 96 mm of Hg
  Diastolic blood pressure Mean ± SD: 78.09 ± 9.99 mm of Hg
  Diastolic blood pressure Median: 76 mm of Hg
  Diastolic blood pressure Min: 62 mm of Hg
  Heart rate Max: 86 beats/minutes
  Heart rate Mean ± SD: 66.36 ± 11.9 beats/minutes
  Heart rate Median: 67 beats/minutes
  Heart rate Min: 49 beats/minutes
Day-1, 00:30 Hr
  Diastolic blood pressure Max: 86 mm of Hg
  Diastolic blood pressure Mean ± SD: 70 ± 8.8 mm of Hg
  Diastolic blood pressure Median: 68 mm of Hg
  Diastolic blood pressure Min: 59 mm of Hg
  Heart rate Max: 84 beats/minutes
  Heart rate Mean ± SD: 66.88 ± 12.26 beats/minutes
  Heart rate Median: 70 beats/minutes
  Heart rate Min: 52 beats/minutes
Day-1, 00:45 Hr
  Diastolic blood pressure Max: 86 mm of Hg
  Diastolic blood pressure Mean ± SD: 74.5 ± 7.67 mm of Hg
  Diastolic blood pressure Median: 76 mm of Hg
  Diastolic blood pressure Min: 61 mm of Hg
  Heart rate Max: 89 beats/minutes
  Heart rate Mean ± SD: 68.83 ± 14.91 beats/minutes
  Heart rate Median: 66 beats/minutes
  Heart rate Min: 50 beats/minutes
Day-1, 01:00 Hr
  Diastolic blood pressure Max: 77 mm of Hg
  Diastolic blood pressure Mean ± SD: 71.4 ± 6.05 mm of Hg
  Diastolic blood pressure Median: 72 mm of Hg
  Diastolic blood pressure Min: 60 mm of Hg
  Heart rate Max: 85 beats/minutes
  Heart rate Mean ± SD: 69.6 ± 11.35 beats/minutes
  Heart rate Median: 66 beats/minutes
  Heart rate Min: 54 beats/minutes
Day-1, 01:15 Hr
  Diastolic blood pressure Max: 82 mm of Hg
  Diastolic blood pressure Mean ± SD: 72 ± 8.16 mm of Hg
  Diastolic blood pressure Median: 72 mm of Hg
  Diastolic blood pressure Min: 62 mm of Hg
  Heart rate Max: 76 beats/minutes
  Heart rate Mean ± SD: 72 ± 2.82 beats/minutes
  Heart rate Median: 70 beats/minutes
  Heart rate Min: 70 beats/minutes
Day-1, 01:30 Hr
  Diastolic blood pressure Max: 66 mm of Hg
  Diastolic blood pressure Mean ± SD: 61 ± 5 mm of Hg
  Diastolic blood pressure Median: 61 mm of Hg
  Diastolic blood pressure Min: 56 mm of Hg
  Heart rate Max: 61 beats/minutes
  Heart rate Mean ± SD: 60.5 ± 0.5 beats/minutes
  Heart rate Median: 60.5 beats/minutes
  Heart rate Min: 60 beats/minutes
Day-1, 30 min. post Infusion
  Diastolic blood pressure Max: 86 mm of Hg
  Diastolic blood pressure Mean ± SD: 75.27 ± 9.22 mm of Hg
  Diastolic blood pressure Median: 73 mm of Hg
  Diastolic blood pressure Min: 60 mm of Hg
  Heart rate Max: 99 beats/minutes
  Heart rate Mean ± SD: 65.18 ± 14.03 beats/minutes
  Heart rate Median: 62 beats/minutes
  Heart rate Min: 50 beats/minutes
Day-1, Screening
  Diastolic blood pressure Max: 108 mm of Hg
  Diastolic blood pressure Mean ± SD: 84.18 ± 13.13 mm of Hg
  Diastolic blood pressure Median: 81 mm of Hg
  Diastolic blood pressure Min: 63 mm of Hg
  Heart rate Max: 108 beats/minutes
  Heart rate Mean ± SD: 68.54 ± 15.32 beats/minutes
  Heart rate Median: 66 beats/minutes
  Heart rate Min: 55 beats/minutes
Day-2, 00:00 Hr
  Diastolic blood pressure Max: 88 mm of Hg
  Diastolic blood pressure Mean ± SD: 78.4 ± 7.86 mm of Hg
  Diastolic blood pressure Median: 79 mm of Hg
  Diastolic blood pressure Min: 69 mm of Hg
  Heart rate Max: 94 beats/minutes
  Heart rate Mean ± SD: 68.8 ± 13.94 beats/minutes
  Heart rate Median: 63 beats/minutes
  Heart rate Min: 55 beats/minutes
Day-2, 00:15 Hr
  Diastolic blood pressure Max: 90 mm of Hg
  Diastolic blood pressure Mean ± SD: 77.4 ± 9.91 mm of Hg
  Diastolic blood pressure Median: 76 mm of Hg
  Diastolic blood pressure Min: 62 mm of Hg
  Heart rate Max: 85 beats/minutes
  Heart rate Mean ± SD: 67.4 ± 12.35 beats/minutes
  Heart rate Median: 61 beats/minutes
  Heart rate Min: 53 beats/minutes
Day-2, 00:30 Hr
  Diastolic blood pressure Max: 84 mm of Hg
  Diastolic blood pressure Mean ± SD: 73.4 ± 8.54 mm of Hg
  Diastolic blood pressure Median: 71 mm of Hg
  Diastolic blood pressure Min: 61 mm of Hg
  Heart rate Max: 93 beats/minutes
  Heart rate Mean ± SD: 68.2 ± 5.54 beats/minutes
  Heart rate Median: 58 beats/minutes
  Heart rate Min: 54 beats/minutes
Day-2, 00:45 Hr
  Diastolic blood pressure Max: 86 mm of Hg
  Diastolic blood pressure Mean ± SD: 79 ± 7.68 mm of Hg
  Diastolic blood pressure Median: 82 mm of Hg
  Diastolic blood pressure Min: 66 mm of Hg
  Heart rate Max: 97 beats/minutes
  Heart rate Mean ± SD: 69 ± 16.80 beats/minutes
  Heart rate Median: 63 beats/minutes
  Heart rate Min: 53 beats/minutes
Day-2, 01:00 Hr
  Diastolic blood pressure Max: 87 mm of Hg
  Diastolic blood pressure Mean ± SD: 79.33 ± 7.58 mm of Hg
  Diastolic blood pressure Median: 82 mm of Hg
  Diastolic blood pressure Min: 69 mm of Hg
  Heart rate Max: 94 beats/minutes
  Heart rate Mean ± SD: 72.66 ± 17.15 beats/minutes
  Heart rate Median: 72 beats/minutes
  Heart rate Min: 52 beats/minutes
Day-2, 01:15 Hr
  Diastolic blood pressure Max: 101 mm of Hg
